{
  "source": "ChEMBL document CHEMBL1201862",
  "about": "“PubChem BioAssay data set” (2004)",
  "assay_in_all_cases": "DTP human tumour cell line panel, 48 h",
  "key": {"DLD-1": {"system": "DLD-1"}, "DMS-114": {"system": "DMS-114"}, "DMS-273": {"system": "DMS-273"}, "HOP-18": {"system": "HOP-18"}, "KM-20L2": {"system": "KM-20L2"}, "LXFL 529": {"system": "LXFL 529"}, "RXF 631": {"system": "RXF 631"}, "SNB-78": {"system": "SNB-78"}, "XF498": {"system": "XF498"}},
  "note": "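Five concentrations, 48 hours, 96-well plates. At the GI50, growth is halved.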 Calls of active or inactive are those of the source. No stated cut-off is given here; in the data, active = GI50 up to about 1.1 µM and inactive = higher.",
  "data": [
    {"smiles": "C#CCN(Cc1ccc2nc(-c3ccccc3)c(Cl)nc2c1)c1cc(OC)c(OC)c(OC)c1", "values": [
      {"measurement": "GI50", "setting": "DLD-1", "result": "> 100 µM (inactive)"},
      {"measurement": "GI50", "setting": "DMS-114", "result": "14.3 µM (inactive)"},
      {"measurement": "GI50", "setting": "DMS-273", "result": "99.5 µM (inactive)"},
      {"measurement": "GI50", "setting": "HOP-18", "result": "> 100 µM (inactive)"},
      {"measurement": "GI50", "setting": "KM-20L2", "result": "> 100 µM (inactive)"},
      {"measurement": "GI50", "setting": "LXFL 529", "result": "> 100 µM (inactive)"},
      {"measurement": "GI50", "setting": "RXF 631", "result": "> 100 µM (inactive)"},
      {"measurement": "GI50", "setting": "SNB-78", "result": "> 100 µM (inactive)"}
    ]},
    {"smiles": "Nc1nc(Cl)cc(NCCCCCCCCCCNc2cc(Cl)nc(N)n2)n1", "values": [
      {"measurement": "GI50", "setting": "DLD-1", "result": "6.5 µM (inactive)"},
      {"measurement": "GI50", "setting": "DMS-273", "result": "4.35 µM (inactive)"},
      {"measurement": "GI50", "setting": "HOP-18", "result": "58.3 µM (inactive)"},
      {"measurement": "GI50", "setting": "KM-20L2", "result": "5.21 µM (inactive)"},
      {"measurement": "GI50", "setting": "LXFL 529", "result": "1.27 µM (inactive)"},
      {"measurement": "GI50", "setting": "RXF 631", "result": "5.3 µM (inactive)"},
      {"measurement": "GI50", "setting": "SNB-78", "result": "0.0638 µM (active)"},
      {"measurement": "GI50", "setting": "XF498", "result": "1.25 µM (inactive)"}
    ]},
    {"smiles": "CC(C)=Cc1cc(C(=O)Nc2ccc(Cl)c(Cl)c2)nc(N)n1", "values": [
      {"measurement": "GI50", "setting": "DLD-1", "result": "> 100 µM (inactive)"},
      {"measurement": "GI50", "setting": "DMS-114", "result": "> 100 µM (inactive)"},
      {"measurement": "GI50", "setting": "DMS-273", "result": "> 100 µM (inactive)"},
      {"measurement": "GI50", "setting": "HOP-18", "result": "78.3 µM (inactive)"},
      {"measurement": "GI50", "setting": "KM-20L2", "result": "> 100 µM (inactive)"},
      {"measurement": "GI50", "setting": "LXFL 529", "result": "> 100 µM (inactive)"},
      {"measurement": "GI50", "setting": "RXF 631", "result": "> 100 µM (inactive)"},
      {"measurement": "GI50", "setting": "SNB-78", "result": "> 100 µM (inactive)"},
      {"measurement": "GI50", "setting": "XF498", "result": "> 100 µM (inactive)"}
    ]},
    {"smiles": "C1CN2N3CCCC23C1", "note": "(stereo unspecified)", "values": [
      {"measurement": "GI50", "setting": "DLD-1", "result": "> 100 µM (inactive)"},
      {"measurement": "GI50", "setting": "DMS-114", "result": "> 100 µM (inactive)"},
      {"measurement": "GI50", "setting": "DMS-273", "result": "> 100 µM (inactive)"},
      {"measurement": "GI50", "setting": "HOP-18", "result": "> 100 µM (inactive)"},
      {"measurement": "GI50", "setting": "KM-20L2", "result": "> 100 µM (inactive)"},
      {"measurement": "GI50", "setting": "LXFL 529", "result": "> 100 µM (inactive)"},
      {"measurement": "GI50", "setting": "SNB-78", "result": "> 100 µM (inactive)"},
      {"measurement": "GI50", "setting": "XF498", "result": "> 100 µM (inactive)"}
    ]},
    {"smiles": "CN(C)CC(/C(Cc1ccccc1)=N\\NC(=O)c1ccncc1)c1ccccc1", "note": "(stereo unspecified)", "values": [
      {"measurement": "GI50", "setting": "DLD-1", "result": "49.1 µM (inactive)"},
      {"measurement": "GI50", "setting": "DMS-114", "result": "22.5 µM (inactive)"},
      {"measurement": "GI50", "setting": "KM-20L2", "result": "27 µM (inactive)"},
      {"measurement": "GI50", "setting": "LXFL 529", "result": "36.1 µM (inactive)"},
      {"measurement": "GI50", "setting": "RXF 631", "result": "40.7 µM (inactive)"},
      {"measurement": "GI50", "setting": "XF498", "result": "29.4 µM (inactive)"}
    ]},
    {"smiles": "N#Cc1cccnc1Cl", "values": [
      {"measurement": "GI50", "setting": "DLD-1", "result": "> 100 µM (inactive)"},
      {"measurement": "GI50", "setting": "DMS-114", "result": "> 100 µM (inactive)"},
      {"measurement": "GI50", "setting": "DMS-273", "result": "> 100 µM (inactive)"},
      {"measurement": "GI50", "setting": "HOP-18", "result": "> 100 µM (inactive)"},
      {"measurement": "GI50", "setting": "KM-20L2", "result": "> 100 µM (inactive)"},
      {"measurement": "GI50", "setting": "LXFL 529", "result": "> 100 µM (inactive)"},
      {"measurement": "GI50", "setting": "RXF 631", "result": "> 100 µM (inactive)"},
      {"measurement": "GI50", "setting": "SNB-78", "result": "> 83.4 µM (inactive)"},
      {"measurement": "GI50", "setting": "XF498", "result": "> 100 µM (inactive)"}
    ]},
    {"smiles": "O=C1Cc2ccccc2N1/N=C\\c1ccc(O)cc1", "values": [
      {"measurement": "GI50", "setting": "DMS-114", "result": "21.8 µM (inactive)"},
      {"measurement": "GI50", "setting": "DMS-273", "result": "> 100 µM (inactive)"},
      {"measurement": "GI50", "setting": "HOP-18", "result": "> 100 µM (inactive)"},
      {"measurement": "GI50", "setting": "KM-20L2", "result": "> 100 µM (inactive)"},
      {"measurement": "GI50", "setting": "RXF 631", "result": "> 100 µM (inactive)"},
      {"measurement": "GI50", "setting": "SNB-78", "result": "> 100 µM (inactive)"},
      {"measurement": "GI50", "setting": "XF498", "result": "> 100 µM (inactive)"}
    ]},
    {"smiles": "O=C1C=Cc2noc3cccc1c23", "values": [
      {"measurement": "GI50", "setting": "DLD-1", "result": "1.66 µM (inactive)"},
      {"measurement": "GI50", "setting": "DMS-114", "result": "2.07 µM (inactive)"},
      {"measurement": "GI50", "setting": "DMS-273", "result": "6.61 µM (inactive)"},
      {"measurement": "GI50", "setting": "HOP-18", "result": "18.7 µM (inactive)"},
      {"measurement": "GI50", "setting": "KM-20L2", "result": "15.5 µM (inactive)"},
      {"measurement": "GI50", "setting": "LXFL 529", "result": "1.94 µM (inactive)"},
      {"measurement": "GI50", "setting": "RXF 631", "result": "13.8 µM (inactive)"},
      {"measurement": "GI50", "setting": "SNB-78", "result": "2.86 µM (inactive)"}
    ]},
    {"smiles": "CC(C)COC(=O)c1ccc(/N=C\\c2ccc(/C=N/c3ccc(C(=O)OCC(C)C)cc3)cc2)cc1", "values": [
      {"measurement": "GI50", "setting": "DLD-1", "result": "> 100 µM (inactive)"},
      {"measurement": "GI50", "setting": "DMS-273", "result": "> 100 µM (inactive)"},
      {"measurement": "GI50", "setting": "KM-20L2", "result": "> 100 µM (inactive)"},
      {"measurement": "GI50", "setting": "LXFL 529", "result": "> 100 µM (inactive)"},
      {"measurement": "GI50", "setting": "RXF 631", "result": "> 100 µM (inactive)"},
      {"measurement": "GI50", "setting": "SNB-78", "result": "> 100 µM (inactive)"},
      {"measurement": "GI50", "setting": "XF498", "result": "> 100 µM (inactive)"}
    ]},
    {"smiles": "O=C(N[C@@H]1C=CCC[C@@H]1c1ccccc1)OCc1ccccc1", "values": [
      {"measurement": "GI50", "setting": "DLD-1", "result": "23.7 µM (inactive)"},
      {"measurement": "GI50", "setting": "DMS-114", "result": "21.7 µM (inactive)"},
      {"measurement": "GI50", "setting": "DMS-273", "result": "16.4 µM (inactive)"},
      {"measurement": "GI50", "setting": "HOP-18", "result": "19.2 µM (inactive)"},
      {"measurement": "GI50", "setting": "KM-20L2", "result": "20 µM (inactive)"},
      {"measurement": "GI50", "setting": "LXFL 529", "result": "18.8 µM (inactive)"},
      {"measurement": "GI50", "setting": "SNB-78", "result": "32.5 µM (inactive)"},
      {"measurement": "GI50", "setting": "XF498", "result": "19 µM (inactive)"}
    ]},
    {"smiles": "COc1c(Br)cc(Br)c(OC)c1-c1[nH]c(Br)c(Br)c1Br", "values": [
      {"measurement": "GI50", "setting": "DLD-1", "result": "5.26 µM (inactive)"},
      {"measurement": "GI50", "setting": "DMS-114", "result": "4.8 µM (inactive)"},
      {"measurement": "GI50", "setting": "DMS-273", "result": "6.9 µM (inactive)"},
      {"measurement": "GI50", "setting": "HOP-18", "result": "2.54 µM (inactive)"},
      {"measurement": "GI50", "setting": "KM-20L2", "result": "8.87 µM (inactive)"},
      {"measurement": "GI50", "setting": "RXF 631", "result": "6.64 µM (inactive)"},
      {"measurement": "GI50", "setting": "SNB-78", "result": "11.1 µM (inactive)"},
      {"measurement": "GI50", "setting": "XF498", "result": "2.27 µM (inactive)"}
    ]}
  ]
}
